Laboratory results as given in PubChem BioAssay (NCI).
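Values below derive from 48-hour exposures of cells grown in 96-well plates, with endpoints linearly interpolated between the two concentrations bracketing the appropriate inhibition level. GI50 marks 50% less growth. TGI is the concentration that stops growth completely.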

Experiments:
Assay in all cases: NCI anticancer screen, dose series, 48 h
[1] = tested on: MCF7 breast
[2] = tested on: SK-MEL-2 melanoma
[3] = tested on: 786-0 renal
[4] = tested on: SK-OV-3 ovarian
[5] = tested on: A498 renal
[6] = tested on: ACHN renal
[7] = tested on: SF-268 CNS
[8] = tested on: SF-295 CNS
[9] = tested on: SK-MEL-5 melanoma
[10] = tested on: SNB-78 CNS
[11] = tested on: DMS 114 small cell lung

Row | Structure (SMILES) | TGI [1] [µM] | TGI [2] [µM] | TGI [3] [µM] | TGI [4] [µM] | TGI [5] [µM] | TGI [6] [µM] | TGI [7] [µM] | TGI [8] [µM] | TGI [9] [µM] | GI50 [1] [µM] | GI50 [2] [µM] | GI50 [4] [µM] | GI50 [5] [µM] | GI50 [10] [µM] | TGI [10] [µM] | GI50 [11] [µM] | TGI [11] [µM] | GI50 [7] [µM] | GI50 [8] [µM] | GI50 [9] [µM]
1 | COc1ccc(-c2c(N)n(-c3cccc(C(=O)O)c3)c(=O)c3cc([N+](=O)[O-])ccc23)cc1 | > 100 | > 100 | > 100 | > 100 | > 100 | > 100 | > 100 | > 100 | > 100 | – | – | – | – | – | – | – | – | – | – | –
2 | O=[Se](=O)c1ccccc1.O=[Se](=O)c1ccccc1.[Cu] | 62 | 33.5 | – | 42.1 | 38 | – | 33.1 | 29.8 | 34.9 | 24.1 | 18.8 | 27.3 | 20.1 | 12.4 | 17.1 | 6.77 | 14.9 | 17.8 | 16 | 19
3 | NCCNc1cccc2ccccc12 | – | > 100 | > 100 | > 100 | > 100 | > 100 | > 100 | > 100 | – | – | – | – | – | – | > 100 | – | > 100 | – | – | –
4 | CSC1=C(C#N)C(=O)N(c2ccc(C)cc2)C(=S)C1C#N (stereo unspecified) | > 100 | > 100 | > 100 | > 100 | > 100 | > 100 | > 100 | > 100 | > 100 | – | – | – | – | – | – | – | – | – | – | –
5 | CN(C)CCNC(=O)c1cccc2nc3c(nc12)-c1ccccc1C3=O | 24.3 | 32.4 | 30.2 | 97 | 29.5 | 32.1 | 32.2 | 39 | 25.1 | – | – | – | – | – | – | – | – | – | – | –
6 | O=C1c2c(nc3ccccc3c2-c2ccccc2)CN1Nc1ccccn1 | > 100 | > 100 | > 93.1 | > 100 | 18.1 | > 100 | > 100 | > 100 | > 100 | – | – | – | – | – | > 42.3 | – | > 76.1 | – | – | –
7 | Cc1cc(-c2nc3ccccc3s2)ccc1NC(=O)[C@H](C)N | 20.4 | 34.3 | 23.7 | 28.5 | 28.6 | 27.5 | 52.5 | 29.3 | 26.1 | – | – | – | – | – | – | – | – | – | – | –
8 | COC(=O)/C=C/c1cc(O)c2c(c1)[C@H](C(=O)OC)[C@@H](c1ccc(O)c(O)c1)O2 | > 100 | > 70 | > 100 | > 79.8 | > 28 | > 85.2 | > 87 | > 93.2 | 2.18 | – | – | – | – | – | – | – | – | – | – | –
9 | CC(=O)O[C@]12CCCC1C1(O)C(O)CCCC12 (stereo partly specified) | – | > 100 | > 100 | > 100 | – | > 100 | > 100 | > 100 | > 100 | – | – | – | – | – | > 100 | – | > 100 | – | – | –
10 | CCOC(=O)/C=C(/C(=O)OCC)n1cc(C)c(=O)n(Cc2cn(COCCOC(C)=O)nn2)c1=O | 43.5 | > 100 | > 54.8 | > 100 | > 100 | 21.6 | 48.2 | > 100 | > 59.8 | – | – | – | – | – | – | – | – | – | – | –
11 | Cc1cn(CC2=NCC(C)(C)N2)c(=O)[nH]c1=O | > 100 | > 100 | > 100 | > 100 | > 100 | > 100 | > 100 | > 100 | > 100 | – | – | – | – | – | – | – | – | – | – | –
12 | CNC(=O)c1cc(NC(=O)N(CCC#N)CCN(C(=O)N[C@@H](Cc2ccccc2)C(=O)N[C@@H](CC(C)C)C(=O)NC)c2ccccc2)ccc1OC | > 100 | > 74.5 | > 100 | > 100 | > 91.5 | > 100 | > 65.7 | > 100 | > 69.2 | – | – | – | – | – | – | – | – | – | – | –
13 | COc1cc(/C=C2\N=C(c3ccccc3)N(c3nc4c(OC)ccc(OC)c4s3)C2=O)cc(OC)c1OC | > 100 | > 100 | > 100 | > 100 | > 100 | > 100 | > 100 | > 100 | > 100 | – | – | – | – | – | – | – | – | – | – | –
14 | CCc1ccc2[nH]c(O)c(-c3[nH]c4ccccc4c3N=O)c2c1 | 6.05 | 15.3 | 18.9 | 12.1 | 15 | 14.7 | 22.3 | 20.5 | 13.6 | – | – | – | – | – | – | – | – | – | – | –
15 | CCCCc1ccc(Nc2ncc3[nH]cnc3n2)cc1 | > 100 | 53.3 | 54.3 | 38.1 | 45.4 | 31.7 | 50.1 | 38 | 31.1 | – | – | – | – | – | – | – | – | – | – | –
